Laboratory results from patent publication US4707481A, “Pyridazinones, their preparation and use, and bronchospasmolytic medicaments containing pyridazinones” (BYK Gulden Lomberg Chemische Fabrik GmbH, priority 1983, dated 1987).
Read-outs that look alike come from different tables or passages of the source. Values belong to the molecule of their own block, whether it stands above or below them.

Experiments:
left ventricles of cats = test: heart function dP/dtmax, left ventricle of anesthetized cats; assay type: in vivo, cat
Protocol: The effect of the substances on the contractility of the heart in cats was tested on animals (.male., .female., 3.2 to 5.2 kg) under anesthesia with chloralose/urethane. The change in pressure in the left ventricle of the heart was measured with a tip catheter introduced through the right carotid artery, the R peak in the ECG (bipolar chest lead) initiating a signal to record the end-diastolic pressure; in addition, the maximum rate of pressure rise (dP/dtmax) was determined from the change in pressure. The heart rate was derived from the pressure waves. The test substances were administered intravenously. 2-6 animals were used per measurement, and the arithmetic mean was calculated from the results.

[1] = system: chain of tracheal rings of guinea pigs; test: relaxing action on chain of tracheal rings in vitro (bronchospasmolytic action); design: species or system guinea pig; details: for EC50: Cavia porcellus, Column A, negative logarithm of EC50 in mol/l, 50% of maximum relaxation by (-)isoprenaline, read-out: -lg[EC50] trachea (converted); for [EC40 pot.] left atrium / [EC50] trachea: Column C, measure of organ-selective activity; for [EC50] theophylline / [EC50] substance: Column D, trachea
Protocol: The relaxing action of the 6-aryl-3[2H]pyridazinones I has been tested in vitro on a chain of tracheal rings (Tr.) of guinea pigs. […] The quotient of [EC40pot. ]left atrium and [ED50 ]trachea serves as a measure of the organ-selective activity.
The bronchospasmolytic action of the compounds on the chain of tracheal rings of the guinea pig was tested in vitro:
Four parallel chains of tracheal rings, each consisting of 6 individual rings, of guinea pigs(.male. and .female., 430-600 g) in an organ bath [5 ml, Krebs-Henseleit solution with added phentolamine (10^-5 mol/l), 37° C., initial tension of the organs 2 g, gassing with carbogen] develop a stable, spontaneous tonic contraction after about 20 to 30 minutes. […] Over a period of 20 to 30 minutes, a complete dose/action curve of the test substance is thus obtained. The particular relaxation is expressed as a percentage fraction of the maximum relaxation which can be achieved by administration of (-)isoprenaline (10^-6 mol/1). The concentration of the test substance which causes 50% of the maximum relaxation which can be achieved, expressed by the negative logarithm of the EC50 mol/l: -lg[EC50 ]is a measure of the bronchodilator activity.

[2] = system: electrically stimulated left atrium of rats; test: positive inotropic action on electrically stimulated left atrium in vitro; design: species or system rat; details: for [EC40 pot.] theophylline / [EC40 pot.] substance: Column E, left atrium; for EC40: Rattus norvegicus, Column B, negative logarithm of EC40pot in mol/l, 40% increase in contraction force, read-out: -lg[EC40 pot.] left atrium (converted)
[3] = system: acetylcholine-induced bronchospasm; test: protective effect against acetylcholine-induced bronchospasm in conscious guinea pigs; assay type: in vivo, guinea pig
Protocol: The figure in parentheses indicates the number out of 10 animals in which the latency period more than tripled.
The latency period is to be understood to be the time from the start of acetylcholine-atomization until clear signs of asthma appeared.
The time from the start of atomization to the onset of clear respiratory exertion (in certain circumstances, hypoxic convulsion in the lateral position) is measured, and is denoted the latency period.
The test substance is administered orally by gavage (standard dose 100 μmol/kg, volume 1 ml of 4% strength methocel suspension in 0.9% strength sodium chloride solution/kg). […] Prolongation of the latency period to at least twice its length is regarded as a protective effect.

[4] = system: right ventricle of guinea pigs; test: heart function dP/dtmax, right ventricle of anesthetized guinea pigs; assay type: in vivo, guinea pig
Protocol: The effect of the substances on the contractility of the heart of guinea pigs is tested on animals (.male., 400 to 1000 g) under urethane anesthesia. The change in pressure in the right ventricle of the heart is measured with a tip catheter introduced through the right jugular vein and the maximum rate of pressure rise (dP/dtmax) is determined from this. The heart rate is derived from the pressure waves. […] The test substances were administered intravenously. 5-7 animals were used for each measurement, and the arithmetic mean was calculated from the results.

[5] = system: guinea pig hearts isolated and perfused by the Langendorff method; test: left-ventricular pressure and heart rate in isolated perfused Langendorff hearts; details: for Emax: Cavia porcellus
From the text: After the animals have been sacrificed by a blow to the neck and exsanguination through the carotid arteries, the thoracic cavity is opened, and the aorta is exposed and looped up with a thread. A cannula, which is attached by tubing to the apparatus from which the nutrient solution slowly drops, is introduced in the direction of the heart and the heart is, quickly after removal from the thorax, connected to the perfusion apparatus. A balloon probe, connected to a Statham pressure sensor, is advanced through a cut through the left atrium into the left ventricle, and is provided with an initial pressure of 40 mm Hg. […] The nutrient solution flowing freely from the coronary sinus into the right atrium is measured with a flow […]) and, together with the change in the left-ventricular pressure and the heart rate determined from this, is recorded on a Watanabe recorder. The substances are administered in a volume of 0.1 ml of nutrient solution, in the dosage indicated in Tab.

EC50 [1]: 1.41 µM | [EC40 pot.] left atrium / [EC50] trachea [1]: 1.5 | [EC50] theophylline / [EC50] substance [1]: 95.5
SMILES: CCOc1cc(-c2ccc(=S)[nH]n2)ccc1OC [compound 14]
[EC40 pot.] theophylline / [EC40 pot.] substance [2]: 200 | EC40 [2]: 2.09 µM

EC50 [1]: 3.09 µM | [EC40 pot.] left atrium / [EC50] trachea [1]: 324 | [EC50] theophylline / [EC50] substance [1]: 43.7
SMILES: CCCOc1ccc(-c2ccc(=S)[nH]n2)cc1OC [Serial No. 13, 6-(3-methoxy-4-n-propoxyphenyl)-3[2H]pyridazinethione]
Doubling of the latency period ([3]; 100 μmol/kg p.o., 30 min): 6 N of 10 animals | Tripling of the latency period ([3]; 100 μmol/kg p.o., 30 min, figure in parentheses): 6 N of 10 animals | protective effect compared with theophylline ([3]; result in words): greater protective effect | EC40 [2]: > 1000 µM

The next lines start with the molecule.

SMILES: Cn1c(=O)c2[nH]cnc2n(C)c1=O.NCCN [Theophylline-ethylenediamine, theophylline-ethylenediamine, reference compound]
Percentage change in dP/dtmax (left ventricles of cats; 3 μmol/kg i.v., 3 min): 8% | Percentage change in dP/dtmax (left ventricles of cats; 3 μmol/kg i.v., 10 min): 2% | Percentage change in dP/dtmax (left ventricles of cats; 3 μmol/kg i.v., 30 min): 2% | Percentage change in dP/dtmax (left ventricles of cats; 3 μmol/kg i.v., 60 min): 1% | Percentage change in dP/dtmax (left ventricles of cats; 10 μmol/kg i.v., 3 min): 62% | Percentage change in dP/dtmax (left ventricles of cats; 10 μmol/kg i.v., 10 min): 30% | Percentage change in dP/dtmax (left ventricles of cats; 10 μmol/kg i.v., 30 min): 22% | Percentage change in dP/dtmax (left ventricles of cats; 10 μmol/kg i.v., 60 min): 26%

SMILES: Nc1cc(-c2ccncc2)c[nH]c1=O [Amrinone, amrinone, reference compound]
Percentage change in dP/dtmax ([4]; 0.3 μmol/kg i.v., 0-10 min (Maximum)): 33% | Percentage change in dP/dtmax ([4]; 0.3 μmol/kg i.v., 10 min): 8% | Percentage change in dP/dtmax ([4]; 0.3 μmol/kg i.v., 30 min): 13% | Percentage change in dP/dtmax ([4]; 1 μmol/kg i.v., 0-10 min (Maximum)): 40% | Percentage change in dP/dtmax ([4]; 1 μmol/kg i.v., 10 min): 21% | Percentage change in dP/dtmax ([4]; 1 μmol/kg i.v., 30 min): 15% | Percentage change in dP/dtmax ([4]; 3 μmol/kg i.v., 0-10 min (Maximum)): 66% | Percentage change in dP/dtmax ([4]; 3 μmol/kg i.v., 10 min): 13% | Percentage change in dP/dtmax ([4]; 3 μmol/kg i.v., 30 min): 20% | Percentage change in dP/dtmax ([4]; 10 μmol/kg i.v., 0-10 min (Maximum)): 101% | Percentage change in dP/dtmax ([4]; 10 μmol/kg i.v., 10 min): 39% | Percentage change in dP/dtmax ([4]; 10 μmol/kg i.v., 30 min): 29% | Percentage change in dP/dtmax ([4]; 30 μmol/kg i.v., 0-10 min (Maximum)): 141% | Percentage change in dP/dtmax ([4]; 30 μmol/kg i.v., 10 min): 78% | Percentage change in dP/dtmax ([4]; 30 μmol/kg i.v., 30 min): 69% | Emax ([5]; after 3000 nMol, read-out: Emax left-ventricular pressure): 35% | Emax ([5]; at Emax, 3000 nMol, read-out: Percentage increase in heart rate at Emax): 8% | Percentage increase in heart rate at EC20 ([5]; at EC20): 7% | EC20 left-ventricular pressure ([5]; dose which leads to a 20% increase in left ventricular pressure): 1410 nmol | Percentage change in dP/dtmax (left ventricles of cats; 1 μmol/kg i.v., 3 min): 17% | Percentage change in dP/dtmax (left ventricles of cats; 1 μmol/kg i.v., 10 min): 6% | Percentage change in dP/dtmax (left ventricles of cats; 1 μmol/kg i.v., 30 min): 7% | Percentage change in dP/dtmax (left ventricles of cats; 1 μmol/kg i.v., 60 min): 23% | Percentage change in dP/dtmax (left ventricles of cats; 3 μmol/kg i.v., 3 min): 52% | Percentage change in dP/dtmax (left ventricles of cats; 3 μmol/kg i.v., 10 min): 42% | Percentage change in dP/dtmax (left ventricles of cats; 3 μmol/kg i.v., 30 min): 40% | Percentage change in dP/dtmax (left ventricles of cats; 3 μmol/kg i.v., 60 min): 43% | Percentage change in dP/dtmax (left ventricles of cats; 10 μmol/kg i.v., 3 min): 70% | Percentage change in dP/dtmax (left ventricles of cats; 10 μmol/kg i.v., 10 min): 67% | Percentage change in dP/dtmax (left ventricles of cats; 10 μmol/kg i.v., 30 min): 59% | Percentage change in dP/dtmax (left ventricles of cats; 10 μmol/kg i.v., 60 min): 55%

SMILES: COc1ccc(-c2ccc(=S)[nH]n2)cc1OC(C)C [compound 17]
EC50 [1]: 7.24 µM | [EC40 pot.] left atrium / [EC50] trachea [1]: 0.4 | [EC50] theophylline / [EC50] substance [1]: 18.6 | [EC40 pot.] theophylline / [EC40 pot.] substance [2]: 151 | EC40 [2]: 2.75 µM
